Reference: US20220304307A1, “SYNERGISTIC MIXTURES FOR ARTHROPOD TOXICITY AND REPELLENCY” (University of Florida Research Foundation, Incorporated, priority 2019, published 2022)
Where two headings read alike, the source gives them in different places.

Assays:
[1] = tested on: pyrethroid-resistant Puerto Rico (PR) strain of Ae. aegypti; experiment: Glass tube spatial repellency assay, resistant strain; format: in vivo, Aedes aegypti; parameters: 1 h EC50-PR (repellency): unit not given here; settings: compound alone; for RR (PR EC50/OR EC50): repellency resistance ratio; for 1 h EC50-PR (repellency): PR strain
Protocol: (§1) The following assay was conducted according to the procedures of Jiang et al., 2019 (Jiang S., Yang L, and Bloomquist J (2019) High-throughput screening method for evaluating spatial repellency and vapor toxicity to mosquitoes. Med. Vet. Entomol.). For assessing behavioral repellency (FIG. 1), sixteen female Aedes aegypti mosquitoes were transferred to a glass tube (12.5 cm long, 2.5 cm outer diameter) with the ends covered with netting. Metofluthrin, bifenthrin, permethrin, pyrethrum, transfluthrin, deltamethrin, esfenvalerate, metofluthrin acid, bifenthrin acid, phenothrin acid, transchryanthemic acid, transfluthrin acid, deltamethrin acid, and fenvalerate acid were each dissolved in 1 mL of acetone and serial dilutions ranging from 30-0.01 μg/ml were made. Circular filter papers (5 cm^2) were saturated with 50 μL of each concentration and allowed 10 min for solvent evaporation. The filter papers were then placed in clear conical polypropylene caps and fixed to the end of the glass tubes. The netting prevented mosquito contact with the filter paper. Tubes were then aligned with a mark denoting the midline and the proportion of mosquitoes on the chemically treated side was scored at 15, 30, and 60 min. At the end of the test, the tube was placed in a cage and the ability of the mosquitoes to fly out of the tube was assessed for 30 min. […] This post-test evaluated whether any non-responding mosquitoes (not repelled) was due to intoxication or disorientation from the test chemical. For vapor toxicity, the assay was identical, except that mosquitoes were kept in the tube for 24 hr without the post-test at 1 hr, and the mortality was recorded at 24 hr.
EC50 values were calculated from non-linear regression to a four parameter logistic equation (Prism, GraphPad Software, San Diego, Calif.) of the curves shown in FIG. 4. RR=resistance ratio. NA=data not yet available.

[2] = tested on: Orlando insecticide-susceptible strain of Ae. aegypti (female mosquitoes); experiment: Glass tube spatial repellency assay; format: in vivo, Aedes aegypti; parameters: 1 h EC50-OR (repellency): unit not given here; settings: for mortality in repellency screening: 100 μg/cm^2, 1 hr exposure; for 15 min repellency ratio / 30 min repellency ratio / 1 hr repellency ratio: horizontal tube, 0.5=0% repellency, 0=100% repellency; for 1 h EC50-OR (repellency) / repellency EC50: compound alone; for 1 h EC50-OR (repellency): OR strain; for repellency EC50 (+TFA): applied as mixture with TFA (50 μg/cm^2); for 1 h EC50-OR (repellency) / repellency EC50 (+TFA) / repellency EC50: 1 hr; for synergist ratio SR (EC50 compound alone/EC50 compound+TFA): repellency, TFA 50 μg/cm^2 as mixture
Protocol: as §1

[3] = tested on: pyrethroid-resistant Puerto Rico strain of Ae. aegypti; experiment: Glass tube vapor toxicity assay, resistant strain; format: in vivo, Aedes aegypti; settings: for resistance ratio RR, vapor toxicity: pyrethroid alone, Puerto Rico vs Orlando
Source text: The netting prevented mosquito contact with the filter paper.
The vapor toxicity of metofluthrin alone and in combination with citronella oil (CO) on susceptible Orlando and pyrethroid-resistant Puerto Rico strains of Ae. aegypti was investigated. The results are provided in Table 10 and in FIGS. 26 and 27. […] Synergism ratio (SR)=LC50 metofluthrin/LC50 metofluthrin+citronella. […] Resistance ratio (RR)=LC50 metofluthrin[…] on Puerto Rico/LC50 metofluthrin on Orlando.
Next, the vapor toxicity of empenthrin applied to two strains of Aedes aegypti, the pyrethroid-susceptible Orlando and pyrethroid-resistant Puerto Rico strain, was investigated. Empenthrin was applied alone and in combination with citronella oil (100 μg/cm^2, a nontoxic exposure). The RR for empenthrin alone was 5.7-fold.

[4] = tested on: insecticide-susceptible Aedes aegypti (Orlando strain) females; experiment: Glass tube vapor toxicity assay (24 hr mortality); settings: for LC50 (24 h vapor toxicity): pyrethroid alone; for 24 hr mort (%): horizontal tube; for mortality at 100 µg/cm2: Aedes aegypti
Protocol: as §1
Synergism ratio (SR)=LC50 pyrethroid/LC50 pyrethroid+EO.

[5] = tested on: female Ae. aegypti; experiment: Human arm bite protection assay; format: in vivo, Aedes aegypti
Protocol: A human bite protection assay was performed according to see if the repellency observed in glass tubes extended to bite protection. The assay was run in accordance with that of Tsikolia et al. (Tsikolia M, Bernier UR, Coy M, Chalaire K, Becnel J, Agramonte N, Tabanca N, Wedge D, Clark G, Linthicum K, Swale D, and J. R. Bloomquist J (2013) Insecticidal and fungicidal properties of novel trifluoromethylphenyl amides. Pestic. Biochem. Physiol. 107, 138-147). Treated cloth patches were worn by human volunteers and the number of blood fed mosquitoes was determined after 1 min spent in a cage with 500 (±10%) female Ae. aegypti. Minimum Effective Dosage (MED in mg/cm^2) is the minimum amount required to prevent 99% of bites in three human volunteers (UF IRB #201602334). Synergist ratio (SR)=MED chemical alone/MED chemical+TFA (0.047 mg/cm^2) or TCA (0.094 mg/cm^2).

[6] = tested on: OR (susceptible) strain of Ae. aegypti antenna; experiment: Electroantennography (EAG) responses, OR strain; parameters: species or system Aedes aegypti; settings: 10 mg odorant, air puff
Source text: (§2) Electroantennography (EAG) responses of OR (susceptible) and PR (resistant) strains of Ae. Aegypti were then obtained for TF, TFA, and TCA (FIGS. 10A and 10B). In these experiments, an air puff stimulus with odorant was blown over an antenna suspended between 2 electrodes and represented the summed electrical response of all the chemo-receptive hairs. All compounds gave responses, with TF the largest (FIG. 10A).

[7] = tested on: PR (resistant) strain of Ae. aegypti antenna; experiment: Electroantennography (EAG) responses, PR strain; parameters: species or system Aedes aegypti; settings: 10 mg odorant, air puff
Source text: as §2

[8] = 0.25 h, read-out: 15 min % mortality
[9] = 0.5 h, read-out: 30 min % mortality
[10] = 1 h, read-out: 1 hr % mortality

| Compound | RR (PR EC50/OR EC50) [1] | 15 min repellency ratio ([2]; 10 μg/cm^2) | 30 min repellency ratio ([2]; 10 μg/cm^2) | 1 hr repellency ratio ([2]; 10 μg/cm^2) | 15 min repellency ratio ([2]; 100 μg/cm^2) | 30 min repellency ratio ([2]; 100 μg/cm^2) | 1 hr repellency ratio ([2]; 100 μg/cm^2) | 24 hr mort (%) ([4]; 10 μg/cm^2) | 24 hr mort (%) ([4]; 100 μg/cm^2) | further results |
| --- | --- | --- | --- | --- | --- | --- | --- | --- | --- | --- |
| C/C=C/C1C(C(=O)OCc2c(F)c(F)c(COC)c(F)c2F)C1(C)C (stereo not drawn) [Metofluthrin, reference compound] | 60 | – | – | – | – | – | – | – | – | mortality in repellency screening [2]: significant mortality; resistance ratio RR, vapor toxicity, +citronella oil ([3]; LC50 metofluthrin+CO on Puerto Rico/LC50 metofluthrin on Orlando): 7.3; resistance ratio RR, vapor toxicity [3]: 50.7; synergism ratio of vapor toxicity, +citronella ([4]; in vivo): 7.6; LC50 (24 h vapor toxicity) [4]: 0.84 μg/cm^2; LC50 +citronella ([4]; with citronella, 24 h): 0.11 μg/cm^2 |
| O=Cc1cccc(-c2ccccc2)c1 [biphenyl-3-carboxaldehyde] | – | 0.44 | 0.38 | 0.38 | 0.44 | 0.31 | 0.19 | 50.0% | 6.3% | – |
| O=Cc1cccc(C=O)c1 [isophthalaldehdye] | – | 0.41 | 0.41 | 0.41 | 0.03 | 0.09 | 0.06 | 40.6% | 87.5% | – |
| C=Cc1cccc(C=O)c1 [3-vinylbenzaldehyde] | – | 0.50 | 0.50 | 0.31 | 0.19 | 0.25 | 0.19 | 100.0% | 6.3% | – |
| O=Cc1cccc(C(=O)O)c1 [3-formyl benzoic acid] | – | 0.50 | 0.47 | 0.47 | 0.53 | 0.56 | 0.56 | 6.3% | 9.4% | – |
| C#CC(OC(=O)C1C(C=C(C)C)C1(C)C)/C(C)=C/CC (stereo not drawn) [empenthrin] | – | – | – | – | – | – | – | – | – | effect of citronella oil on resistance to vapor toxicity ([3]; citronella oil 100 μg/cm^2, Puerto Rico strain): reversed resistance; resistance ratio RR, vapor toxicity [3]: 5.7 |
| CC=CC1C(C(=O)O)C1(C)C (stereo not drawn) [MFA, metofluthrin acid] | 1.3 | – | – | – | – | – | – | – | – | 1 h EC50-PR (repellency) [1]: 18; 1 h EC50-OR (repellency) [2]: 14 |
| CC(C)=C[C@@H]1[C@@H](C(=O)O)C1(C)C (relative stereo) [TCA, 1-R-trans-chrysanthemic acid] | 1.9 | – | – | – | – | – | – | – | – | repellency ([2]; TCA alone at 10 μg/cm^2): 25%; repellency EC50 (+TFA) [2]: 1.3 μg/cm^2; repellency EC50 [2]: 20 μg/cm^2; synergist ratio SR (EC50 compound alone/EC50 compound+TFA) [2]: 15; MED values Female 10 ([5]; as E30, volunteer one): 0.375 mg/cm^2; MED values Female 9 ([5]; as E30, volunteer two): 0.187 mg/cm^2; MED Mean ([5]; mean of three human volunteers): 0.312 mg/cm^2; MED values Male 4 ([5]; minimum amount preventing 99% of bites, treated cloth patch, 1 min in cage, mixtures with TFA 0.047 or TCA 0.094 mg/cm^2): 0.375 mg/cm^2 |
| CC(C)(C)c1cccc(C=O)c1 [3-tert-butylbenzaldehyde] | – | 0.31 | 0.25 | 0.31 | – | – | – | 6.3% | 81.3% | mortality at 100 µg/cm2 [4, 8]: 96.9%; mortality at 100 µg/cm2 [4, 9]: 100%; mortality at 100 µg/cm2 [4, 10]: 100% |
| CC1(C)[C@H](C=C(Cl)Cl)[C@H]1C(=O)OCc1c(F)c(F)cc(F)c1F [Transfluthrin, reference compound] | 4.7 | – | – | – | – | – | – | – | – | EAG response [6]: largest; EAG response in PR strain relative to OR [7]: reduced; mortality in repellency screening [2]: significant mortality; repellency EC50 (+TFA) [2]: 0.11 μg/cm^2; synergism of repellency with citronella ([2]; citronella at its EC20 (20 μg/cm^2)): not; repellency EC50 [2]: 0.5 μg/cm^2; synergist ratio SR (EC50 compound alone/EC50 compound+TFA) [2]: about 5; synergism ratio of vapor toxicity, +TFA ([4]; TFA 50 μg/cm^2): 2.3; LC50 (24 h vapor toxicity) [4]: 0.16 μg/cm^2; LC50 +TFA ([4]; with TFA (50 μg/cm^2), 24 h): 0.07 μg/cm^2 |
| O=Cc1cccc(Cl)c1 [3-chlorobenzaldehyde] | – | 0.28 | 0.34 | 0.41 | – | – | – | 31.3% | 100.0% | mortality at 100 µg/cm2 [4, 8]: 50%; mortality at 100 µg/cm2 [4, 9]: 75%; mortality at 100 µg/cm2 [4, 10]: 100% |
| CC(C)=CC1C(C(=O)O)C1(C)C (stereo not drawn) [PhenA, phenothrin acid] | 0.8 | – | – | – | – | – | – | – | – | – |
| trifluoromethoxybenzaldehyde | – | 0.38 | 0.38 | 0.44 | 0.31 | 0.31 | 0.50 | 6.3% | 0.0% | – |
| CC1(C)C(C=C(Cl)C(F)(F)F)C1C(=O)O (stereo not drawn) [BFA, bifenthrin acid] | 0.8 | – | – | – | – | – | – | – | – | 1 h EC50-PR (repellency) [1]: 11; 1 h EC50-OR (repellency) [2]: 14 |
| CC(C)[C@H](C(=O)O)c1ccc(Cl)cc1 [FVA, fenvalerate acid] | 1.7 | – | – | – | – | – | – | – | – | – |
